Read-outs that look alike come from different tables or passages of the source.
Tests used:
[1] = tested on: Purified human neutrophils; test: Luminol enhanced chemiluminescence (neutrophil oxidative activity), fMLP stimulated; assay type: cell-based
Excerpt: Chemiluminescence Methods: Luminol enhanced chemiluminescence, a measure of neutrophil oxidative activity, is dependent upon both superoxide production and mobilization of the granule enzyme myeloperoxidase. The light is emitted from unstable high-energy oxygen species such as hypochlorous acid and singlet oxygen generated by activated neutrophils.
Purified human neutrophils (2×10^6/ml) suspended in Hanks balanced salt solution containing 0.1% human serum albumin (HA), adenosine deaminase (1 U/mL) and rolipram (100 nM) were incubated (37 C) in a water bath for 15 min with or without rhTNF (10 U/ml). Following incubation 100 µL aliquots of the PMN were transferred to wells (White walled clear bottom 96 well tissue culture plates Costar #3670; 2 wells/condition) containing […] and luminol (final concentration 100M) with or without adenosine agonist (final agonist concentrations 0.01-1000 nM). The plate was incubated 5 min (37 C) and then fMLP (50 l in HA; final concentration […]) was added to all wells.
Peak chemiluminescence was determined with a Victor 1420 Multilabel Counter in the chemiluminescence mode using the Wallac Workstation software. Data are presented as peak chemiluminescence as percent of activity in the absence of an adenosine agonist. The EC50 was determined using PRISM software. All compounds were tested with PMNs from three separate donors.

human A1 AR = target: T1, human A1 AR (Homo sapiens, UniProt P30542); test: Radioligand competition binding with 125I-ABA, membranes of CHO K1 cells stably expressing the receptor; conditions: Ki derived from IC50, class symbols
T1 construct: expressed in transfected cells; membranes
T1 sequence (P30542 1-326): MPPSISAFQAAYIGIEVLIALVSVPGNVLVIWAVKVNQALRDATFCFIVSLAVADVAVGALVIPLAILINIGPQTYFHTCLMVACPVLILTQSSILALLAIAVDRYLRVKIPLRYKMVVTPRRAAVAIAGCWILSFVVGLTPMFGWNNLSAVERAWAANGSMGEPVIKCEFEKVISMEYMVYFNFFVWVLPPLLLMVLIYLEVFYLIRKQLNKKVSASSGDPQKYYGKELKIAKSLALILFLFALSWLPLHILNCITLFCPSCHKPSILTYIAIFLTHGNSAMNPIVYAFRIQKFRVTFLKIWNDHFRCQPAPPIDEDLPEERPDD

[2] = target: T2, recombinant human A2A receptors (Homo sapiens, UniProt P29274); test: Radioligand competition binding with 125I-APE or 125I-ZM241385, Sf9 cell membranes; conditions: 125I-APE or 125I-ZM241385, Sf9 membranes; class symbols
T2 construct: expressed in transfected cells; host or cells: Sf9 insect cells infected with virus; membranes
Procedure: Cell culture and membrane preparation. Sf9 cells were cultured in Grace's medium supplemented with 10% fetal bovine serum, 2.5 μg/ml amphotericin B and 50 μg/ml gentamycin in an atmosphere of 50% N2/50% O2. Viral infection was performed at a density of 2.5×10^6 cells/mL with a multiplicity of infection of two for each virus used. Infected cells were harvested 3 days post-infection and washed twice in insect PBS (PBS pH 6.3). Cells were then resuspended in lysis buffer (20 mM HEPES pH 7.5, 150 mM NaCl, 3 mM MgCl2, 1 mM α-mercaptoethanol (BME), 5 μg/mL leupeptin, 5 μg/mL pepstatin A, 1 μg/mL aprotinin, and 0.1 mM PMSF) and snap frozen for storage at −80° C. Cells were thawed on ice, brought to 30 mL total volume in lysis buffer, and burst by N2 cavitation (600 psi for 20 minutes). A low-speed centrifugation was performed to remove any unlysed cells (1000×g for 10 minutes), followed by a high-speed centrifugation (17,000×g for 30 minutes). The pellet from the final centrifugation was homogenized in buffer containing 20 mM HEPES pH 8, 1100 mM NaCl, 1% glycerol, 2 μg/mL leupeptin, 2 μg/mL pepstatin A, 2 μg/mL Aprotinin, 0.1 mM PMSF, and 10 μM GDP using a small glass homogenizer followed by passage through a 26 gauge needle. Membranes were aliquoted, snap frozen in liquid N2, and stored at −80° C.
Radioligand Binding Assays. […] Binding experiments were performed in triplicate with 5 μg (A2A) or 25 μg (A1 and A3) membrane protein in a total volume of 00.1 mL HE buffer (20 mM HEPES and 1 mM EDTA) with 1 U/mL adenosine deaminase and 5 mM MgCl2 with or without 50 μM GTPγS. Membranes were incubated with radioligands at room temperature for three hours (for agonists) or two hours (for antagonists) in Millipore Multiscreen® 96-well GF/C filter plates and assays were terminated by rapid filtration on a cell harvester (Brandel, Gaithersburg, Md.) followed by 4×150 μl washes over 30 seconds with ice cold 10 mM Tris-HCl, pH 7.4, 10 mM MgCl2. Nonspecific binding was measured in the presence of 50 μM NECA.

human A3 AR = target: T3, human A3 AR (Homo sapiens, UniProt P0DMS8); test: Radioligand competition binding with 125I-ABA, membranes of HEK 293 cells stably expressing the receptor; conditions: Ki derived from IC50, class symbols
T3 construct: expressed in transfected cells; membranes
T3 sequence (P0DMS8 1-318): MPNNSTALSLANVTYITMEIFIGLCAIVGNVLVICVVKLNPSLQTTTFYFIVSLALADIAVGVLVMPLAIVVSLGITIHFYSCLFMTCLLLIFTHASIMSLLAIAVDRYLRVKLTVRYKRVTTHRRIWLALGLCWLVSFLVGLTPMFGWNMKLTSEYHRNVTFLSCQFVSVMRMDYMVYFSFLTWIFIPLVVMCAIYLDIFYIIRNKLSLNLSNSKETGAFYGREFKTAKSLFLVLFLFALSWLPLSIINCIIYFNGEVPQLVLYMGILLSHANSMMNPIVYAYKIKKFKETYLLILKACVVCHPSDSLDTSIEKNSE
Procedure: Cell culture and membrane preparation. Sf9 cells were cultured in Grace's medium supplemented with 10% fetal bovine serum, 2.5 μg/ml amphotericin B and 50 μg/ml gentamycin in an atmosphere of 50% N2/50% O2. Viral infection was performed at a density of 2.5×10^6 cells/mL with a multiplicity of infection of two for each virus used. Infected cells were harvested 3 days post-infection and washed twice in insect PBS (PBS pH 6.3). Cells were then resuspended in lysis buffer (20 mM HEPES pH 7.5, 150 mM NaCl, 3 mM MgCl2, 1 mM α-mercaptoethanol (BME), 5 μg/mL leupeptin, 5 μg/mL pepstatin A, 1 μg/mL aprotinin, and 0.1 mM PMSF) and snap frozen for storage at −80° C. Cells were thawed on ice, brought to 30 mL total volume in lysis buffer, and burst by N2 cavitation (600 psi for 20 minutes). A low-speed centrifugation was performed to remove any unlysed cells (1000×g for 10 minutes), followed by a high-speed centrifugation (17,000×g for 30 minutes). The pellet from the final centrifugation was homogenized in buffer containing 20 mM HEPES pH 8, 1100 mM NaCl, 1% glycerol, 2 μg/mL leupeptin, 2 μg/mL pepstatin A, 2 μg/mL Aprotinin, 0.1 mM PMSF, and 10 μM GDP using a small glass homogenizer followed by passage through a 26 gauge needle. Membranes were aliquoted, snap frozen in liquid N2, and stored at −80° C. Membranes from cells stably expressing the human A1 AR (CHO K1 cells) or A3 AR (HEK 293 cells) were prepared as described (Robeva et al., 1996).
Radioligand Binding Assays. Radioligand binding to recombinant human A2A receptors in Sf9 cell membranes was performed using either the radiolabeled agonist, ^125I-APE (Luthin et al., 1995) or the radiolabeled antagonist, ^125I-ZM241385 (^125I-ZM). To detect the high affinity, GTPγS-sensitive state of A1 and A3 AR, we used the agonist, ^125I-ABA (Linden et al., 1985; Linden et al., 1993). Binding experiments were performed in triplicate with 5 μg (A2A) or 25 μg (A1 and A3) membrane protein in a total volume of 00.1 mL HE buffer (20 mM HEPES and 1 mM EDTA) with 1 U/mL adenosine deaminase and 5 mM MgCl2 with or without 50 μM GTPγS. Membranes were incubated with radioligands at room temperature for three hours (for agonists) or two hours (for antagonists) in Millipore Multiscreen® 96-well GF/C filter plates and assays were terminated by rapid filtration on a cell harvester (Brandel, Gaithersburg, Md.) followed by 4×150 μl washes over 30 seconds with ice cold 10 mM Tris-HCl, pH 7.4, 10 mM MgCl2. Nonspecific binding was measured in the presence of 50 μM NECA. Competition binding assays were performed as described (Robeva et al., 1996) using 0.5-1 nM ^125I-APE, ^125I-ZM241385, or ^125I-ABA. […] The Ki values for competing compound binding to a single site were derived from IC50 values with correction for radioligand and competing compound depletion as described previously (Linden, 1982).

[3] = EC50 of peak chemiluminescence, human PMN, rolipram 100 nM, fMLP, three donors, class symbols, read-out: Functional
[4] = Homo sapiens, Neutrophil, read-out: Functional
[5] = Homo sapiens, Neutrophil, read-out: Functional (nM)

T2 sequence (P29274 whole entry): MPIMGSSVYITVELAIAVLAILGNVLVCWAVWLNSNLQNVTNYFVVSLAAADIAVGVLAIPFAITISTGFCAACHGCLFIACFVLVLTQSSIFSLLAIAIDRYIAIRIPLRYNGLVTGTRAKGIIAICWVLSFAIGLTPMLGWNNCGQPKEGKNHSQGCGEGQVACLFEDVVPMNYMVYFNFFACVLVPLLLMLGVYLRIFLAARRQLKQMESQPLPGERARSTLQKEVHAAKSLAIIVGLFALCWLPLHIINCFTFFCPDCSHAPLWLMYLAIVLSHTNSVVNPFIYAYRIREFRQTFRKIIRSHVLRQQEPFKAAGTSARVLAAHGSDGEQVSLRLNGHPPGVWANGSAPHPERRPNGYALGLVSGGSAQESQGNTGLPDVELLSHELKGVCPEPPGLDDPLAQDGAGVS

Molecule	EC50 [1, 3] [nM]	Ki (human A1 AR) [nM]	Ki [2] [nM]	Ki (human A3 AR) [nM]	EC50 [1, 4] [nM]	EC50 [1, 5] [nM]
N=C(Oc1ccc(F)cc1)N1CCC(CC#Cc2nc(N)c3ncn([C@@H]4O[C@H](C(=O)NC5CC5)[C@@H](O)[C@H]4O)c3n2)CC1 [Compound 41, N-Cyclopropyl 2-{3-[1-(4-fluorophenyloxycarboxymidyl)-4-piperidinyl]-1-propyn-1-yl}adenosine-5′-uronamide]	< 10	< 100	< 10	> 100		
CCNC(=O)[C@H]1O[C@@H](n2cnc3c(N)nc(C#CCC4CCN(C(=O)Oc5ccc(F)cc5)CC4)nc32)[C@@H](O)C1O (stereo partly drawn) [Compound 24, N-Ethyl 2-{3-[1-(4-fluorophenyloxycarbonyl)-4-piperidinyl]-1-propyn-1-yl}adenosine-5′-uronamide]		< 100	< 1	< 10	< 1	
Nc1nc(C#CCC2CCN(C(=O)Oc3ccc(F)c(F)c3)CC2)nc2c1ncn2[C@@H]1O[C@H](CO)[C@@H](O)[C@H]1O [Compound 54, 2-{3-[1-((3,4-Difluoro)phenoxycarbanoyl)piperidin-4-yl]propyn-1-yl}adenosine]		< 100	< 1	< 100	< 10	
N-Cyclopropyl 2-{3-[1-((4-amino)benzyloxycarbanoyl)-4-piperidinyl]propyn-1-yl}adenosine-5′-uronamide [Compound 48]	< 10	> 100	< 10	> 100		
Nc1nc(CCCC2CCN(C(=O)Oc3ccccc3)CC2)nc2c1ncn2[C@@H]1O[C@H](C(=O)NC2CC2)C(O)[C@@H]1O (stereo partly drawn) [Compound 38]		> 100	< 100	> 100		< 100
Cc1ccc(OC(=O)N2CCC(CC#Cc3nc(N)c4ncn([C@@H]5O[C@H](C(=O)NC6CC6)C(O)[C@@H]5O)c4n3)CC2)cc1 (stereo partly drawn) [Compound 20, N-Cyclopropyl 2-{3-[1-(4-methylphenyloxycarbonyl)-4-piperidinyl]-1-propyn-1-yl}adenosine-5′-uronamide]		< 100	< 1	> 100	< 1	
CCNC(=O)[C@H]1O[C@@H](n2cnc3c(N)nc(CCCC4CCN(C(=O)Oc5ccc(NO)cc5)CC4)nc32)[C@@H](O)C1O (stereo partly drawn) [Compound 37]		< 100	< 1	< 100		< 10
CCNC(=O)[C@H]1O[C@@H](n2cnc3c(N)nc(C#CCC4CCN(C(=O)Oc5ccc(Cl)cc5)CC4)nc32)[C@@H](O)C1O (stereo partly drawn) [Compound 26, N-Ethyl 2-{3-[1-(4-chlorophenyloxycarbonyl)-4-piperidinyl]-1-propyn-1-yl}adenosine-5′-uronamide]		< 100	< 1	< 10	< 1	
CCNC(=O)[C@H]1O[C@@H](n2cnc3c(N)nc(C#CCC4CCN(C(=O)Oc5ccc(OC)cc5)CC4)nc32)[C@@H](O)C1O (stereo partly drawn) [Compound 15, N-Ethyl 2-{3-[1-(4-methoxyphenoxycarbonyl)-4-piperidinyl]-1-propyn-1-yl}adenosine-5′-uronamide]		< 100	< 1	< 10	< 1	
Nc1nc(C#CCC2CCN(C(=O)Nc3ccc(F)cc3)CC2)nc2c1ncn2[C@@H]1O[C@H](CO)C(O)[C@@H]1O (stereo partly drawn) [Compound 44]		< 100	< 10	< 100	> 100	
Nc1nc(C#CCC2CCN(C(=O)Oc3ccc(Br)cc3Br)CC2)nc2c1ncn2[C@@H]1O[C@H](C(=O)NC2CC2)C(O)[C@@H]1O (stereo partly drawn) [Compound 57, N-Cyclopropyl 2-{3-[1-(2,4-bromophenoxycarbonyl)-4-piperidinyl]-1-propyn-1-yl}adenosine-5′-uronamide]		< 100	< 1	< 100	< 10	
Cc1ccc(OC(=O)N2CCC(CCCc3nc(N)c4ncn([C@@H]5O[C@H](C(=O)NC6CC6)C(O)[C@@H]5O)c4n3)CC2)cc1 (stereo partly drawn) [Compound 39]		> 100	< 100	> 100		< 100

Reference: patent US7888329B2, “Substituted aryl piperidinylalkynyladenosines as A2AR agonists” (PGxHealth, LLC, priority 2006, dated 2011)
